For test [1], the target named is T1, c-Src (Homo sapiens, UniProt P12931).
T1 construct: purchased Upstate Biotechnologies
Put plainly: c-Src Kinase Assay (ELISA format). Type of test: biochemical. In a few lines:
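Partially purified Src preincubated with compound and biotinylated peptide 10 min at 30 °C in Tris-HCl pH 7.5 with MgCl2, EGTA, vanadate; ATP-started reaction ran 1 h at 30 °C, EDTA-stopped. Phosphopeptide captured on streptavidin, detected by HRP anti-phosphotyrosine; % inhibition = (1 − Abs/Abs(max)) × 100.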
(In general: In an ELISA, binding on a coated surface is turned into a signal by an enzyme label.)

Test [2] has as its system Rat2 fibroblasts stably transformed with a plasmid containing a CMV promotor controlled v-Src/Hu c-Src fusion gene. Kind of test: Anchorage Independent Src-transformed Fibroblast Proliferation Assay.
Setting [3] is: Rattus norvegicus, Rat2, 120 h, read-out: anch-indep src-tx fib IC50, suspension growth, MTS on Day 5.
[4] abbreviates: read-out: anch-indep src-tx fib IC50, suspension growth, MTS on Day 5.

Broadly, the IC50 is the midpoint of a concentration-inhibition curve. In general, inhibition refers to the relative decrease from the control value, in per cent.

Each structure is given as a SMILES string. “And” between values parts separate entries of the source, which are not always exact repeats. Equal values may be shown once. Read-outs that look alike come from different tables or passages of the source.

T1 sequence (P12931 whole entry, species assumed): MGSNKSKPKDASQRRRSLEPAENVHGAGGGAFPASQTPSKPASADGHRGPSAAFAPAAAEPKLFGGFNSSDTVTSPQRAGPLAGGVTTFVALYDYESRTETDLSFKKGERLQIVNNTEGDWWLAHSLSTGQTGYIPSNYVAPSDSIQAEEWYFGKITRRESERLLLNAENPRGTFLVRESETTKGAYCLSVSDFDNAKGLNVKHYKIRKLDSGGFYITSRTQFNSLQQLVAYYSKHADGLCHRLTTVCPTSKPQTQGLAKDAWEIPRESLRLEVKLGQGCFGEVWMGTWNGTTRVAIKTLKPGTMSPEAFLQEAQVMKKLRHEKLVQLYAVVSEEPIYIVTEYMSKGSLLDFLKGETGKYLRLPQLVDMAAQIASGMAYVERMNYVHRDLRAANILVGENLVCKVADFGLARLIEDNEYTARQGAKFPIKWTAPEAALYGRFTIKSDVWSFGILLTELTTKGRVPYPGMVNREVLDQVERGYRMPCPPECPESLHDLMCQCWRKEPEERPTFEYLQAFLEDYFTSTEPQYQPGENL

For the compound `COc1cc(Nc2c(C#N)cnc3cc(-c4ccc(CN5CCCCC5C(=O)O)cc4)ccc23)c(Cl)cc1Cl` (stereo not shown) [Example 147, 1-{4-[3-cyano-4-(2,4-dichloro-5-methoxyanilino)-7-quinolinyl]benzyl}-2-piperidinecarboxylic acid], the 50% inhibitory concentration (IC50) stood at 0.47 nM in test [1] and 4600 nM in test [2] (setting [3]).

Take `CCOC(=O)C1CCCN(Cc2ccc(-c3ccc4c(Nc5cc(OC)c(Cl)cc5Cl)c(C#N)cnc4c3)cc2)C1` (stereo not shown) [Example 148, ethyl 1-(4-{3-cyano-4-[(2,4-dichloro-5-methoxyphenyl)amino]-7-quinolinyl}benzyl)-3-piperidinecarboxylate]: the results for the 50% inhibitory concentration (IC50) in test [1] and in test [2] (setting [3]) were 8.6 nM and 2100 nM, respectively.

For `COc1cc(Nc2c(C#N)cnc3cc(-c4ccc(CN5CCCC(C(=O)O)C5)cc4)ccc23)c(Cl)cc1Cl` (stereo not shown) [Example 149, 1-(4-{3-cyano-4-[(2,4-dichloro-5-methoxyphenyl)amino]-7-quinolinyl}benzyl)-3-piperidinecarboxylic acid], the IC50 in test [1] is 0.67 nM; in test [2] (setting [3]), 2500 nM.

With `COc1cc(Nc2c(C#N)cnc3cc(-c4ccc(CN5CCS(=O)(=O)CC5)cc4)ccc23)c(Cl)cc1Cl` [Example 150, 4-[(2,4-dichloro-5-methoxyphenyl)amino]-7-{4-[(1,1-dioxido-4-thiomorpholinyl)methyl]phenyl}-3-quinolinecarbonitrile], the IC50 in test [1] is 13 nM and 6.6 nM; in test [2] (setting [3]), 500 nM; in test [2] (setting [4]), 520 nM.

Regarding `COc1cc(Nc2c(C#N)cnc3cc(-c4ccc(CO)n4C)ccc23)c(Cl)cc1Cl` [Example 162, 4-(2,4-dichloro-5-methoxyanilino)-7-[5-(hydroxymethyl)-1-methyl-1H-pyrrol-2-yl]-3-quinolinecarbonitrile], the values for the 50% inhibitory concentration (IC50) in test [1] and in test [2] (setting [3]) were 76 nM and more than 10000 nM, respectively.

`COc1cc(Nc2c(C#N)cnc3cc(-c4sccc4C=O)ccc23)c(Cl)cc1Cl` [Example 163, 4-(2,4-dichloro-5-methoxyanilino)-7-(3-formyl-2-thienyl)-3-quinolinecarbonitrile]: the IC50 in test [1] was more than 1000 nM; in test [2] (setting [3]) it was more than 10000 nM.

For `COc1cc(Nc2c(C#N)cnc3cc(-c4cccn4C(=O)OC(C)(C)C)ccc23)c(Cl)cc1Cl` [Example 164, tert-butyl 2-[3-cyano-4-(2,4-dichloro-5-methoxyanilino)-7-quinolinyl]-1H-pyrrole-1-carboxylate], the results for the 50% inhibitory concentration (IC50) in test [1] and in test [2] (setting [3]) were more than 1000 nM and more than 10000 nM, respectively.

Compound `COc1cc(Nc2c(C#N)cnc3cc(-c4ccc(-c5ccccc5)cc4)ccc23)c(Cl)cc1Cl` [Example 165, 7-[1,1'-biphenyl]-4-yl-4-(2,4-dichloro-5-methoxyanilino)-3-quinolinecarbonitrile] displayed an inhibition at 0.01 µM in test [1] (at 10 nM) of 28%. The IC50 in test [2] (setting [3]) is more than 10000 nM.

Consider `COc1cc(Nc2c(C#N)cnc3cc(C#CCN4CCOCC4)c(OC)cc23)c(Cl)cc1Cl` [Example 166, 4-(2,4-dichloro-5-methoxyanilino)-6-methoxy-7-[3-(4-morpholinyl)-1-propynyl]-3-quinoline-carbonitrile], for which the IC50 in test [1] is 5.5 nM; in test [2] (setting [3]), 720 nM.

As to `COc1cc(Nc2c(C#N)cnc3cc(-c4csc(CN5CCOCC5)c4)ccc23)c(C)cc1Cl` [Example 167, 4-(4-chloro-5-methoxy-2-methylanilino)-7-[5-(4-morpholinylmethyl)-3-thienyl]-3-quinolinecarbonitrile], the IC50 is 12 nM and 16 nM in test [1]; 900 nM in test [2] (setting [3]).

Consider `COc1cc(Nc2c(C#N)cnc3cc(-c4cccc(N)c4)ccc23)c(Cl)cc1Cl` [Example 174, 7-(3-aminophenyl)-4-(2,4-dichloro-5-methoxyanilino)-3-quinolinecarbonitrile], for which the IC50 in test [1] was 95 nM; in test [2] (setting [3]) it was 5600 nM.

With `COC(=O)C1CCN(Cc2ccc(-c3ccc4c(Nc5cc(OC)c(Cl)cc5Cl)c(C#N)cnc4c3)nc2)CC1` [Example 176, 1-{6-[3-cyano-4-(2,4-dichloro-5-methoxyphenylamino)-quinolin-7-yl]-pyridin-3-ylmethyl}piperidine-4-carboxylic acid methyl ester], the IC50 in test [1] is 1.7 nM; in test [2] (setting [3]) it was 90 nM.

On to `CCN1CCN(c2ccc(-c3ccc4c(Nc5cc(OC)c(Cl)cc5Cl)c(C#N)cnc4c3)nc2)CC1` [Example 179, 4-[(2,4-dichloro-5-methoxyphenyl)amino]-7-[5-(4-ethyl-1-piperazinyl)-2-pyridinyl]-3-quinolinecarbonitrile], for which the IC50 in test [1] was found to be 0.23 nM; in test [2] (setting [3]), 270 nM.

Turning to `COc1cc(Nc2c(C#N)cnc3cc(-c4cnc(N5CCOCC5)nc4)ccc23)c(Cl)cc1Cl` [Example 186, 4-(2,4-dichloro-5-methoxyanilino)-7-[2-(4-morpholinyl)-5-pyrimidinyl]-3-quinolinecarbonitrile], the IC50 in test [1] is 30 nM; in test [2] (setting [3]), more than 10000 nM.

For the compound `COc1cc(Nc2c(C#N)cnc3cc(-c4csc(CN5CCC(O)CC5)c4)ccc23)c(Cl)cc1Cl` [Example 192, 4-(2,4-dichloro-5-methoxyanilino)-7-{5-[(4-hydroxy-1-piperidnyl)methyl]-3-thienyl}-3-quinolinecarbonitrile], the IC50 in test [1] is 2.1 nM; in test [2] (setting [3]), 170 nM.

`COc1cc(Nc2c(C#N)cnc3cc(-c4ccc(Oc5ccc(CN6CCOCC6)cc5)nc4)ccc23)c(Cl)cc1Cl` [Example 193, 4-(2,4-dichloro-5-methoxyanilino)-7-{6-[4-(4-morpholinylmethyl)phenoxy]-3-pyridinyl)-3-quinolinecarbonitrile]: the IC50 in test [1] was 34 nM; in test [2] (setting [3]), more than 10000 nM.

As to `COc1ccc(-c2ccc3c(Nc4cc(OC)c(Cl)cc4Cl)c(C#N)cnc3c2)cc1` [Example 194, 4-(2,4-dichloro-5-methoxyanilino)-7-(4-methoxyphenyl)-3-quinolinecarbonitrile], the half-inhibitory concentration (IC50) was 12 nM in test [1] and more than 10000 nM in test [2] (setting [3]).

Turning to `COc1cc(Nc2c(C#N)cnc3cc(-c4cnc(C=O)n4C)c(OC)cc23)c(Cl)cc1Cl` [Example 228, 4-(2,4-dichloro-5-methoxyanilino)-7-(2-formyl-1-methyl-1H-imidazol-5-yl)-6-methoxy-3-quinolinecarbonitrile], the IC50 in test [1] was 46 nM; in test [2] (setting [3]), more than 10000 nM.

With `COc1cc(Nc2c(C#N)cnc3cc(-c4ccc(CNCCc5ccccn5)cc4)ccc23)c(Cl)cc1Cl` [Example 229, 4-(2,4-dichloro-5-methoxyanilino)-7-[4-({[2-(2-pyridinyl)ethyl]amino}methyl)phenyl]-3-quinolinecarbonitrile], the IC50 in test [1] came out at 2.3 nM; in test [2] (setting [3]), 450 nM.

For the compound `COC(=O)C1CCN(Cc2ccc(-c3ccc4c(Nc5cc(OC)c(Cl)cc5Cl)c(C#N)cnc4c3)cc2)CC1` [Example 231, methyl 1-{4-[3-cyano-4-(2,4-dichloro-5-methoxy-anilino)-7-quinolinyl]benzyl}-4-piperidinecarboxylate], the IC50 in test [1] is 6.8 nM; in test [2] (setting [3]), 390 nM.

In the case of `COc1cc(Nc2c(C#N)cnc3cc(-c4cnc(CN5CCOCC5)n4C)c(OC)cc23)c(Cl)cc1Cl` [Example 232, 4-(2,4-dichloro-5-methoxyanilino)-6-methoxy-7-[1-methyl-2-(4-morpholinylmethyl)-1H-imidazol-5-yl]-3-quinolinecarbonitrile], the IC50 came to 78 nM in test [1] and 3500 nM in test [2] (setting [3]).

`COc1cc(Nc2c(C#N)cnc3cc(-c4ccc(CN5CCOCC5)cc4)ccc23)c(Cl)cc1C` [Example 234, 4-(2-chloro-5-methoxy-4-methylanilino)-7-[4-(4-morpholinylmethyl)phenyl]-3-quinolinecarbonitrile]: the IC50 in test [1] is 7.2 nM; in test [2] (setting [3]), 720 nM.

In the case of `COc1cc(Nc2c(C#N)cnc3cc(-c4ccc(CN5CCOCC5)cc4)ccc23)c(Cl)cc1F` [Example 235, 4-(2-chloro-4-fluoro-5-methoxyanilino)-7-[4-(4-morpholinylmethyl)phenyl]-3-quinolinecarbonitrile], the half-inhibitory concentration (IC50) in test [1] stood at 4.1 nM; in test [2] (setting [3]), 790 nM.

Consider `COc1ccc(Cl)c(Nc2c(C#N)cnc3cc(-c4ccc(CN5CCOCC5)cc4)ccc23)c1` [Example 236, 4-(2-chloro-5-methoxyanilino)-7-[4-(4-morpholinylmethyl)phenyl]-3-quinolinecarbonitrile], for which the IC50 was 3 nM in test [1] and 570 nM in test [2] (setting [3]).

On to `COc1cc(Nc2c(C#N)cnc3cc(-c4ccc(CN5CCC(C(=O)O)CC5)cc4)ccc23)c(Cl)cc1Cl` [Example 237, 1-{4-[3-cyano-4-(2,4-dichloro-5-methoxyanilino)-7-quinolinyl]benzyl}-4-piperidinecarboxylic acid], for which the IC50 in test [1] is 0.18 nM (2×) and 0.55 nM; in test [2] (setting [3]) it was 490 nM; in test [2] (setting [4]), 520 nM and 410 nM.

Source of the values: patent EP1268431B1 (Wyeth, priority 2000, dated 2001).
